Assay results as given in patent US20220313595A1, “Oral Care Compositions Comprising Hops” (The Procter & Gamble Company, priority 2021, published 2022).

System: plaque biofilm grown from fresh pooled human saliva
Experiment: in vitro plaque glycolysis model (iPGRM): acid production and acid inhibition
Assay type: cell-based, plaque microorganisms from human saliva
Details: TABLE 2, 3-day biofilm
Procedure: Acid production and acid inhibition were determined with the in vitro plaque glycolysis model (iPGRM). The purpose of this technique is to provide a simple and quick method for determining if compounds have an influence on the metabolic pathways that plaque microorganisms utilize to produce toxins that adversely affect gingival health. It is also useful to determine if compounds have an influence on the metabolic pathways that plaque microorganisms utilize to produce plaque acids that adversely affect teeth.
The in vitro plaque glycolysis model (iPGRM) is a technique in which plaque is grown from human saliva and treated with various agents to determine anti-glycolytic activity of treatments. When bacteria convert sugar into energy with the help of enzymes, acids are formed. These acids demineralize and damage the dental enamel. […]
[…] The pH of the media solutions was then measured to determine the amount of glycolysis inhibition relative to a negative control.
On Day 1, new glass rods (5 mm×90 mm) were polished approximately 25 mm from the un-tapered end on a lathe with silicon carbide paper of 240, 320, 400, and 600 grit used sequentially. […] After polishing, rods were stored until ready to run test. […]

## [H]/N=C(\N/C(=N/[H])NCCCCCCNC(=N)NC(=N)Nc1ccc(Cl)cc1)Nc1ccc(Cl)cc1 [1% Chlorhexidine, Chlorhexidine]
2 min treatment with dentifrice slurry or diluted treatment in water (1:5), ΔpH vs blank vials
  Acid Production (ΔpH) Mean: 0.30 ΔpH
Relative to negative control Crest Cavity Protection
  Mean Acid Inhibition (%) Mean: 80.77%
